Legend:
[1] = system: PDK1 in wildtype and HIF1α knockout mouse embryo fibroblasts (MEFs); test: Western blot of PDK1 in hypoxic MEFs; format: cell-based; conditions: 0.5% O2 24 h, 2 ng/ml
Protocol: FIG. 11. Inhibition of HIF1 increases oxygen consumption in vitro. (a) Western blot of wildtype and HIF1α knockout MEFs exposed normoxia (N) or hypoxia (H) (0.5% O2) for 24 hours in the presence or absence of 2 ng/ml echinomycin. (b) In vitro oxygen consumption of wildtype and HIF1α knockout MEFs (b) after exposure to 24 hours of normoxia or hypoxia (0.5% O2) in the presence or absence of 2 ng/ml echinomycin. Data are normalized to normoxic values. (*) indicate a significant difference relative to control (p<0.05).
Western blots. In brief, cells were harvested directly in RIPA buffer containing protease inhibitors, protein concentrations were quantified (Pierce), 25-50 μg of total protein was electrophoresed on a reducing Tris-Tricine gel, and electroblotted to PVDF membrane. Antibodies used were rabbit anti-PDK1 (Stressgen) (1:2000), murine anti-α tubulin (Research Diagnostics) (1:2000), and rabbit anti-Bnip3 and anti-Bnip3L as described previously by Papandreou et al. (2005) Cancer research 65, 3171-8. (1:500). Primary antibodies were detected with species-specific secondary antibodies labeled with Alkaline Phosphatase (Vector labs) (1:3000) and visualized with ECF (Amersham) on a Storm 860 phosphoimager (Molecular Devices).

RKO and RKOShHIF1α cells = test: In vitro oxygen consumption of RKO and RKOShHIF1α cells; format: cell-based, human; conditions: 0.5% O2 24 h
Protocol: FIG. 7. Inhibition of HIF1 and PDK1 increases oxygen consumption in vitro and in vivo. (a) Western blots of extracts from RKO and Su.86 cells exposed to normoxia (N) or hypoxia (H) (0.5% O2) for 24 h in the presence or absence of 2 ng/ml echinomycin probed for the indicated proteins. (b) Oxygen consumption rates of RKO and RKOShHIF1α cells (left) and Su.86 cells (right) after 24 h treatment with normoxia or hypoxia (0.5% O2) with or without 2 ng/ml echinomycin. Data are normalized to normoxic samples. (c) Relative oxygen consumption of RKO cells treated with hypoxia (0.5% O2) for 24 h in the presence of increasing concentrations of echinomycin. (d) Oxygen consumption rates of freshly explanted tumor tissue from RKO (n=16) and RKOShHIF1α (n=8) xenografts. (e) Oxygen consumption rates of RKO and RKOShHIF1 tumors from mice treated with 0.12 mg/kg echinomycin ip 24 h prior (n=8), or 50 mg/kg DCA ip 4 h prior (n=8). Data is normalized to PBS treated controls (n=8-16). (*) indicate a significant difference relative to control (p<0.05).
Oxygen consumption measurements. Cells were trypsinized and suspended at 3×10^6 to 6×10^6 cells per ml in normoxic DMEM+10% FBS. Oxygen consumption was measured in a 0.5 ml volume using an Oxytherm electrode unit (Hansatech, Norfolk, UK). […] Oxygen consumption was measured as above in a 1 ml volume and normalized to tissue weight.

[2] = system: RKO and RKOShHIF1α tumors; test: Tumor growth delay, RKO and RKOShHIF1α xenografts; format: in vivo, mouse
Protocol: FIG. 10. Pharmacologic inhibition of HIF1 or PDK1 enhances the response of tumor xenografts to the hypoxic cytotoxin tirapazamine. For all experiments, treatment was initiated when the mean tumor volume was 100-200 mm^3. (a) RKO tumor bearing mice were treated with 0.12 mg/kg echinomycin ip followed by 30 mg/kg tirapazamine ip at 24 hours, followed by a rest day for 3 cycles. Single agents were given at the same dose, on the same schedule. (b) RKO tumor bearing mice were treated with 50 mg/kg DCA ip followed by 20 mg/kg tirapazamine ip at 4 hours daily for 14 days. Single agents were given at the same dose, on the same schedule. (c,d,e) RKO (c), RKOShHIF1α (d), or Su.86 (e) tumor bearing mice were treated with echinomycin plus tirapazamine as described above for 6 cycles (Ech+TPZ), or tirapazamine followed by echinomycin at 24 hours followed by a rest day for 6 cycles (TPZ+Ech). For all experiments, arrows indicate when treatment was stopped.
Cell lines and tumor xenografts. RKO human colon carcinoma cells and Su.86 human pancreatic carcinoma cells were obtained from the American Type Culture Collection (ATCC, Manassas, Va.). The RKOShHIF1α cell line in which HIF1α is stably knocked down by shRNA has been described previously. RKO and immortalized MEF cells were grown in Dulbecco's Modified Eagle's Media (DMEM) supplemented with 10% fetal bovine serum (FBS). Su.86 cells were grown in RPMI 1640 medium supplemented with 10% FBS. Cells were exposed to hypoxia by placing culture dishes into an Invivo2 humidified hypoxia workstation (Ruskin Technologies, Bridgend, UK) at 0.5% O2. Echinomycin (a gift of A. Giaccia, Stanford University) was included in the media at the indicated concentrations. Tumor xenografts were established by injecting 5×10^6 cells for the RKO lines or 1×10^7 cells for the Su.86 line sc into the flanks of 6-8 week old female nude mice. To monitor tumor growth, caliper measurements were made of two perpendicular diameters, and the formula (d1)(d2)(d2)(0.52) was used to calculate tumor volume. […]

CS[C@H]1SC[C@H]2C(=O)N(C)[C@@H](C(C)C)C(=O)OC[C@@H](NC(=O)c3cnc4ccccc4n3)C(=O)N[C@@H](C)C(=O)N(C)[C@@H]1C(=O)N(C)[C@@H](C(C)C)C(=O)OC[C@@H](NC(=O)c1cnc3ccccc3n1)C(=O)N[C@@H](C)C(=O)N2C [echinomycin]
hypoxic expression of PDK1 in HIF1α deficient cells ([1]; HIF1α knockout MEFs): no effect
hypoxic PDK1 induction in wildtype MEFs ([1]; wildtype MEFs): blocked PDK1 induction
effect on HIF1-dependent reduction in oxygen consumption in parental cells (RKO and RKOShHIF1α cells; RKO parental cells, increasing concentrations): dose-dependent block
effect on oxygen consumption in RKOShHIF1α cells (RKO and RKOShHIF1α cells; RKOShHIF1α cells, 2 ng/ml): no effect
tumor growth delay of combination compared to single agents, RKO tumors ([2]; 0.12 mg/kg echinomycin ip followed at 24 h by 30 mg/kg tirapazamine ip, rest day, 3 cycles): greater than additive
effect on tumor growth, RKOShHIF1 tumors ([2]; echinomycin plus tirapazamine, regardless of the order the drugs were given, 6 cycles): no significant effect
effect on growth of RKO tumors, reversed schedule ([2]; tirapazamine followed by echinomycin at 24 hours, 6 cycles, compared to echinomycin followed by tirapazamine): little effect

Reference: patent US20070212360A1, “Modulation of mitochondrial oxygen consumption for therapeutic purposes” (priority 2006, published 2007)
